Data on one compound can be found in patent publication US20230312639A1, “GPER PROTEOLYTIC TARGETING CHIMERAS” (University of Iowa Research Foundation, priority 2020, published 2023).

The test system of assay [1] is HCC1806 cells. As to the kind of experiment: Cell viability assay, 24 hour treatment. The conditions noted are these: HCC1806, 24 hours, mean ± SD. The class given is cell-based, human. How it is done:
(§1) Cell cytotoxicity assays. […] In brief, breast cancer cells were seeded in 96 well-plates at a density of 10^4 cells/well in growth media. On the following day, the contents of the 96 well plates were aspirated and replaced by treatment at different concentrations (ranging from 10^-9 to 10^-3 M), followed by the addition of media to bring the total volume to 200 µL/well. The untreated control group was incubated with 200 µL/well of fresh media. One day later, the media were aspirated and replaced by 90 µL media + 10 µL Prestoblue reagent, followed by incubation at 37° C. for 1 h. The fluorescence was excited at 560 nm and emission was recorded at 590 nm using a Spectra Max plus 384 Microplate Spectrophotometer (Molecular Devices, Sunnyvale, CA). Relative cell viability values were expressed as the percentage of the fluorescence recorded from wells containing treated cells compared to the control wells containing untreated cells.
(§2) Each breast cancer cell line was treated for 24 hours with various concentrations of E2-PROTAC or partial PROTAC and then cell viability was assessed using an MTS assay that measures mitochondrial oxido-reductase enzymes capable of converting a tetrazolium salt to a formazan dye (summarized in Table 2). […] These IC50 values were similar to those measured for cells treated with partial PROATAC.

Assay [2] concerns MCF-7 cells. As to the kind of experiment: Cell viability assay, 24 hour treatment. The class given is cell-based, human. The note with it: MCF-7, 24 hours, mean ± SD. As to the method: as §1, §2
In assay [3] the test system is MDA-MB-231 cells. Briefly: Cell viability assay, 24 hour treatment. The conditions noted are these: MDA-MB-231, 24 hours. It is filed as cell-based, human. How it is done: as §1, §2
The test system of assay [4] is SKBR3 cells. Briefly: Cell viability assay, 24 hour treatment. It is filed as cell-based, human. The note with it: SKBR3, 24 hours, mean ± SD. As to the method:
as §1, §2

For a further assay, the target named is T1, HA-GPER (Homo sapiens, UniProt Q99527).
T1 construct: expressed in transfected cells
T1 sequence (Q99527 whole entry): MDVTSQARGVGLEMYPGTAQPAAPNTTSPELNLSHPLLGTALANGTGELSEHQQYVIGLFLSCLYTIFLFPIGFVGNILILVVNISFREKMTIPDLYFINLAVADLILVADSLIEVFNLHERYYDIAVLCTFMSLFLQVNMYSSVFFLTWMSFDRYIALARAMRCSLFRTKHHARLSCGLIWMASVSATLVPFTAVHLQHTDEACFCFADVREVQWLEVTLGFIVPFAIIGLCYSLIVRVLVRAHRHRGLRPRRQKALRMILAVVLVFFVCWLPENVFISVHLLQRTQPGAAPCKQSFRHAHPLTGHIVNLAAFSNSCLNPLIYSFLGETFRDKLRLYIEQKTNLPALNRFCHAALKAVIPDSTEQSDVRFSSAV
As to the kind of experiment: Immunofluorescence with HA antibody, stably transfected HEK293 cells. The note with it: 100 µM, 1 hour. It is filed as cell-based.

A further assay deals with T2, HA-b1AR (Homo sapiens, UniProt P08588).
T2 construct: expressed in transfected cells
T2 sequence (P08588 whole entry): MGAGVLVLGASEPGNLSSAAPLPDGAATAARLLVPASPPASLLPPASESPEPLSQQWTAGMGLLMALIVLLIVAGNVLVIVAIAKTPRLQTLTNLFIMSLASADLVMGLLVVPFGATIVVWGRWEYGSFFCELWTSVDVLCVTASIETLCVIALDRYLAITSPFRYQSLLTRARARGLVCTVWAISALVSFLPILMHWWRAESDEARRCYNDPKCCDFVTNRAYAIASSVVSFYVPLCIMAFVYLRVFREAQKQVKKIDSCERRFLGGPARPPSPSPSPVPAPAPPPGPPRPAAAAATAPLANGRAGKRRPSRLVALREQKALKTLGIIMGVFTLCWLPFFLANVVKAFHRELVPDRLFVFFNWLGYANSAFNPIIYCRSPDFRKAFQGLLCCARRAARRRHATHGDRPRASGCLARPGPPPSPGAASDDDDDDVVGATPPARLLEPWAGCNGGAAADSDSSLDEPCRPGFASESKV
Described as above. The class given is cell-based. The note with it: 100 µM, 1 hour.

Assay [5] relates to HCC1806 cells. As to the kind of experiment: Cell cycle analysis, propidium iodide, flow cytometry. The class given is cell-based, human. The note with it: HCC1806, 10 µM, 24 hours. From the text: (§3) FIG. 30. E2-PROTACs promote estrogen receptor-dependent G2/M arrest. E2-PROTAC induced G2/M arrest in human breast cancer cell lines expressing membrane and/or intracellular estrogen receptors. […] Fixed cells were permeabilized and dyed with propidium iodide (PI). Cell cycle data were acquired on a flow cytometer and analyzed using Flow-Jo software. Data are expressed as mean ± SEM (n=3). The percentage of cells in each phase were plotted using Prism 8.0.
(§4) Cell cycle analysis. […] Following treatment, cells were harvested by trypsinization and washed twice in ice-cold PBS. Cells were then fixed in 70% ethanol at 4° C. for 30 minutes. Fixed cells were pelleted by centrifugation at 230 g for 5 minutes and the cell pellet was incubated in Krishan’s solution (3.8 mM sodium citrate (Fisher Scientific), 0.014 mM propidium iodide (AnaSpec, Fermont, Ca), 1% NP-40 (Sigma) and 2.0 mg/mL RNase A (Fisher Scientific)) for 30 minutes at 37° C. Cells were then centrifuged and washed in PBS prior to analysis using a FacScallibur flow cytometer. The data from flow cytometry were subjected to further analysis by CellQuest software version 3.3. DNA histograms generated indicate the fractions of the cell population in the sub-G1, G0-G1, S, or G2/M phase of the cell cycle.
(§5) To investigate the biological effect associated with decreased cell viability, cell cycle analysis was performed on the same four cell lines using propidium iodide staining and measured by flow cytometry 24 hours after treatment of cells with 10 µM E2-PROTAC or partial PROTAC (FIG. 30).

For assay [6], the system named is MCF-7 cells. Described as above. The class given is cell-based, human. The conditions noted are these: MCF-7, 10 µM, 24 hours.
Excerpt: as §3, §4, §5

Assay [7] deals with MDA-MB-231 cells. The description is as above. It is filed as cell-based, human. The conditions noted are these: MDA-MB-231, 10 µM, 24 hours.
Excerpt: as §3, §4, §5

The subject of assay [8] is SKBR3 cells. The description is as above. It is filed as cell-based, human. The note with it: SKBR3, 10 µM, 24 hours.
Excerpt: as §3, §4, §5

In the next assay the test system is HCC 1806 and SKBR3 cells. As to the kind of experiment: Survivability of breast cancer cells (Example 1). The conditions noted are these: HCC 1806 and SKBR3, 24 hours of treatment.
Another assay deals with GPER (Homo sapiens, UniProt Q99527). Briefly: Immunostaining of surface and intracellular GPER in SKBR3 cells. The note with it: SKBR3, 100 uM, 1 hour.
Sequence of GPER (Q99527 whole entry): as the sequence (Q99527 whole entry) above

For `Cc1ncsc1-c1ccc(CNC(=O)C2CC(O)CN2C(=O)C(NC(=O)COCCOCCOCCOCC(=O)OC2CCC3C4CCc5cc(O)ccc5C4CCC23C)C(C)(C)C)cc1` (stereo not drawn) [UI-EP001], the concentration for half-maximal inhibition (IC50) in the assay with HCC1806 cells [1] was 34.9 ± 1.2 µM; in the assay with MCF-7 cells [2], 9 ± 1.2 µM; with MDA-MB-231 cells [3], more than 100 µM; in the assay with SKBR3 cells [4], 10.9 ± 1.2 µM. For the same compound, on HA-GPER, the “degradation of HA-GPER” value was “specific degradation of HA-GPER was measured”. For the same compound, at HA-b1AR, the “off-target degradation of HA-b1AR” value is given as “without detectable off-target degradation”. Besides, the cell cycle distribution result in the assay with HCC1806 cells [5] is on record as “dramatic increase in the G2/M peak”; in the assay with MCF-7 cells [6], “dramatic increase in the G2/M peak”; in the assay with MDA-MB-231 cells [7] it was “This shift was not observed”; in the assay on SKBR3 cells [8], “dramatic increase in the G2/M peak”. In addition, the “survivability compared to partial PROTAC” value in the assay on HCC 1806 and SKBR3 cells was “lower survivability”. For the same compound, the “plasma membrane and total GPER” value at GPER is “reduced plasma membrane and total GPER”.
